Data on seven molecules can be found in ChEMBL document CHEMBL5465560, “Selectivity Literature for EUbOPEN Chemogenomic Library” (2024).

Assay [1] concerns the target T1, Inhibitor of nuclear factor kappa-B kinase subunit alpha (Homo sapiens) (UniProt O15111).
T1 sequence (whole entry): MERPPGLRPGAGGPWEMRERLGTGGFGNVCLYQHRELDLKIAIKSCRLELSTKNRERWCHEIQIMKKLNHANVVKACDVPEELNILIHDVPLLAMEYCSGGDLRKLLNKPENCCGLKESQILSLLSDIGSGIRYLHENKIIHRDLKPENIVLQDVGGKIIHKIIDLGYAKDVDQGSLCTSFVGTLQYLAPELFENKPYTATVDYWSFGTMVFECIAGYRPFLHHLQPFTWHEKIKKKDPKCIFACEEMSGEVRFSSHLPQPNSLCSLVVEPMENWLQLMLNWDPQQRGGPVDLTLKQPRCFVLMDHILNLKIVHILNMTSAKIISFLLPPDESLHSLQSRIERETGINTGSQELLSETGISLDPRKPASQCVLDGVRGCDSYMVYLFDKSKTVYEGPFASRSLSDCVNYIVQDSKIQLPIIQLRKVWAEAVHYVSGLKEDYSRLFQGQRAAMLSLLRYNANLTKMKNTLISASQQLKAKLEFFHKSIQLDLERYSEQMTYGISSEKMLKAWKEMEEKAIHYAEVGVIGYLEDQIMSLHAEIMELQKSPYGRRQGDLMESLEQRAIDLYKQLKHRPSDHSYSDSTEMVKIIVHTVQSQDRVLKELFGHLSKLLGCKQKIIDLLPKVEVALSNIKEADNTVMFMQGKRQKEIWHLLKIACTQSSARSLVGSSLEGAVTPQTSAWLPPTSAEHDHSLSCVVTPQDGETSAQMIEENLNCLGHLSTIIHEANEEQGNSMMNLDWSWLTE
To be noted: at 1 µM.

In assay [2] the target is Rho-associated protein kinase 2 (Homo sapiens, UniProt O75116). Kind of assay: Selectivity interaction (ProQinase) EUB0000171b ROCK2.
The target of assay [3] is T2, Tyrosine-protein kinase receptor TYRO3 (Homo sapiens) (UniProt Q06418).
T2 sequence (whole entry): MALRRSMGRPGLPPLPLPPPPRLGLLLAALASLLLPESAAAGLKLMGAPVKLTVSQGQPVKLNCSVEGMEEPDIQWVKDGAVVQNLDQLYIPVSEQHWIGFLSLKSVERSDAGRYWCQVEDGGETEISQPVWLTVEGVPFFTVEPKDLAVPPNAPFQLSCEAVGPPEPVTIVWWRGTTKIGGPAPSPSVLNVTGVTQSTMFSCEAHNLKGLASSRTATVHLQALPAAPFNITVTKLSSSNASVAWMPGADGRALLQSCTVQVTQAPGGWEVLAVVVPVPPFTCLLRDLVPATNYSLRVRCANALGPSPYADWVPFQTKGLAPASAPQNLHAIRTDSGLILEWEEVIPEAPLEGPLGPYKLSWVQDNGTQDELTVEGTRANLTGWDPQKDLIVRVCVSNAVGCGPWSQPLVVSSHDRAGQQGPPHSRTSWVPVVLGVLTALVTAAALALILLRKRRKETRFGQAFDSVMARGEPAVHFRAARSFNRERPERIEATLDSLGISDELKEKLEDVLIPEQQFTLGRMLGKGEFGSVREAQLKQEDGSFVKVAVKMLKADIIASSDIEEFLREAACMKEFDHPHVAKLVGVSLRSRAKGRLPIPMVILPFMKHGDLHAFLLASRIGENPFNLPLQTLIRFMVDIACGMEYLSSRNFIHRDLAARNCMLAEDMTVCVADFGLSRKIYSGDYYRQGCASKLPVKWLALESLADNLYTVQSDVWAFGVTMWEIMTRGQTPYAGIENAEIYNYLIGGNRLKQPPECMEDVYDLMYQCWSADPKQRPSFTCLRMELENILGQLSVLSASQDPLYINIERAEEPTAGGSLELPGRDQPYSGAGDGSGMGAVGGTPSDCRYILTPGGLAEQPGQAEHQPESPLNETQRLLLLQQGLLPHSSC
Kind of assay: Selectivity interaction (KinomeScan (DiscoverX)) EUB0001049a TYRO3. Particulars: at 1 µM.

Assay [4] concerns the target Mitogen-activated protein kinase kinase kinase 4 (Homo sapiens) (UniProt Q9Y6R4). Kind of assay: Selectivity interaction (KinomeScan (DiscoverX)) EUB0000045b MAP3K4.
Assay [5] addresses T3, cGMP-dependent protein kinase 2 (Homo sapiens) (UniProt Q13237).
T3 sequence (whole entry): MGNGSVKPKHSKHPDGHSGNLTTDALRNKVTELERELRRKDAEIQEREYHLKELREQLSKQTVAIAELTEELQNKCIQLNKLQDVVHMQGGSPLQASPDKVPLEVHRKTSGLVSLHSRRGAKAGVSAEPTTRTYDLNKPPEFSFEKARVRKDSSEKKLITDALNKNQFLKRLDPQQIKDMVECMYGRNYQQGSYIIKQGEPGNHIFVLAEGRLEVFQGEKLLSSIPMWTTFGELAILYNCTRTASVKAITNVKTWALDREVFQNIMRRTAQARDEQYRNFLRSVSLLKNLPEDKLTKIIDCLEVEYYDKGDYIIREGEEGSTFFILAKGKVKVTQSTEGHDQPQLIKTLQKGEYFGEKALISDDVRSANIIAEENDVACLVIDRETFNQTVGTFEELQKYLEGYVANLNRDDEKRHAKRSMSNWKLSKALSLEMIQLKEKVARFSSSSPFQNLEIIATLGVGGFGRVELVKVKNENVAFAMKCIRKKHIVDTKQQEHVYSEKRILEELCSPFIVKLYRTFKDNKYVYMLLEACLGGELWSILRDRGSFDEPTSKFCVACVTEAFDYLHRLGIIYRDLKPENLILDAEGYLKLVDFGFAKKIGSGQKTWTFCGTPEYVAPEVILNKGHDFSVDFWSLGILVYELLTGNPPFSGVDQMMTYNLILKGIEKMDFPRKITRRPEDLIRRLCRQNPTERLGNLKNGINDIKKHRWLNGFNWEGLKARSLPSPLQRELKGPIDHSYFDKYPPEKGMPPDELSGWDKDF
As to the kind of experiment: Selectivity interaction (KinomeScan (DiscoverX)) EUB0000607a PRKG2. Particulars: at 10 µM.

In assay [6] the target is Cell division control protein 42 homolog (Homo sapiens) (UniProt P60953). As to the kind of experiment: Selectivity interaction (Kinase panel (Invitrogen)) EUB0000639a CDC42. Particulars: at 200 nM.
Assay [7] deals with Ribosomal protein S6 kinase alpha-1 (Homo sapiens, UniProt Q15418). As to the kind of experiment: Selectivity interaction (ActivX KiNativ screen (kinase selectivity in THP-1 cell lysates)) EUB0000639a RPS6KA1. To be noted: lysate, at 1 µM. It counts as subcellular.
Assay [8] addresses Wee1-like protein kinase (Homo sapiens) (UniProt P30291). Kind of assay: Selectivity interaction (KinomeScan (DiscoverX)) EUB0001619a WEE1. Particulars: at 1 µM.
The target of assay [9] is Tyrosine-protein kinase HCK (Homo sapiens) (UniProt P08631). Kind of assay: Selectivity interaction (KinomeScan (DiscoverX)) EUB0001619a HCK. Particulars: at 1 µM.
Tyrosine-protein kinase HCK (Homo sapiens), sequence (P08631 2-526 limits assumed): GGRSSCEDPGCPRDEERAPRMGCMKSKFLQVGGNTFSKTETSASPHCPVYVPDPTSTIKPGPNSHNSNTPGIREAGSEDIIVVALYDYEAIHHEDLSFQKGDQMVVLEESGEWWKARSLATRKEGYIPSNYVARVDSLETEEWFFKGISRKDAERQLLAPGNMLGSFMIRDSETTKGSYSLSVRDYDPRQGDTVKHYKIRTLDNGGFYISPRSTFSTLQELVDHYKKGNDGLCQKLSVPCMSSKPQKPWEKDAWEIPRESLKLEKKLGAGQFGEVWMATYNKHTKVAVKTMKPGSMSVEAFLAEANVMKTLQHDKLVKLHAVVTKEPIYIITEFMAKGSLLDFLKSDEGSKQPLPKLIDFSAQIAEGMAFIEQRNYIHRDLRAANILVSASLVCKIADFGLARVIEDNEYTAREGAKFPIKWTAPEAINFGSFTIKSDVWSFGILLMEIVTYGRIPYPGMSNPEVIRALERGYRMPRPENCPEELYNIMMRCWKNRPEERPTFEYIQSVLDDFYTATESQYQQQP

Rho-associated protein kinase 2, sequence (O75116 whole entry, looked up): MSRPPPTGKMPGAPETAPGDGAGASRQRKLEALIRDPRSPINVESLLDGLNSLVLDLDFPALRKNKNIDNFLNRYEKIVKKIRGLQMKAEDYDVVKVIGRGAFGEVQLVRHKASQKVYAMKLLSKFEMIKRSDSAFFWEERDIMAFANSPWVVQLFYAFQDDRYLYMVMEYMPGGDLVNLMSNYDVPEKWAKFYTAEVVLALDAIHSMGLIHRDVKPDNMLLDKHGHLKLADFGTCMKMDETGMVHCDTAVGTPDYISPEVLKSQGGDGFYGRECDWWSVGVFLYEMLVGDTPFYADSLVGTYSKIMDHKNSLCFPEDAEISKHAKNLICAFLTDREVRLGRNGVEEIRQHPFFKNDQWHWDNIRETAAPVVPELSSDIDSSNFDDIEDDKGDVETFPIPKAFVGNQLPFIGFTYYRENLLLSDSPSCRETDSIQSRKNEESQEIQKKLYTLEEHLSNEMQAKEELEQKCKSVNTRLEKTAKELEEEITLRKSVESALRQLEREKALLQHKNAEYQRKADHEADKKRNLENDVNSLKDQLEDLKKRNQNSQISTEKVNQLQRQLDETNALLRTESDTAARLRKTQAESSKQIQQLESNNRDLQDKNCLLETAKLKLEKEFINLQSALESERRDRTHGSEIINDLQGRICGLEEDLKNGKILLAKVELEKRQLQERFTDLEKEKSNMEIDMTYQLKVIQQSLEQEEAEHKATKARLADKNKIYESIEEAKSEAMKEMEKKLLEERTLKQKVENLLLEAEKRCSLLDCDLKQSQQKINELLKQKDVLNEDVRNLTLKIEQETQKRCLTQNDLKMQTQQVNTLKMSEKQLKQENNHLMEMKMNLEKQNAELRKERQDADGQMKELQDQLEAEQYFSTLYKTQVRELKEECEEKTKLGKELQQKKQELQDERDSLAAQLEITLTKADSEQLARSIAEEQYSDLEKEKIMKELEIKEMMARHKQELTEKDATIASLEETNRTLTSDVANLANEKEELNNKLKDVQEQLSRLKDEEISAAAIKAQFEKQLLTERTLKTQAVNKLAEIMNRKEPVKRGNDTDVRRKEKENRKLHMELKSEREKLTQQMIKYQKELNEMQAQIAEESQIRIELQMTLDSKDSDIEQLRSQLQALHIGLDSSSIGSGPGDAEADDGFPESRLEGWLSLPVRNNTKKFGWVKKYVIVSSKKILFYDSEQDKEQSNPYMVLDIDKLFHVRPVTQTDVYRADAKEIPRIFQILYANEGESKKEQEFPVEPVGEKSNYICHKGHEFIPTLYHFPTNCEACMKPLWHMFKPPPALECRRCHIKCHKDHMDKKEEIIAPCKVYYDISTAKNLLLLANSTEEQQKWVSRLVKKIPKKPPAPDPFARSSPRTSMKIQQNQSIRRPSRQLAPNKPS
Mitogen-activated protein kinase kinase kinase 4 (Homo sapiens), sequence (Q9Y6R4 whole entry): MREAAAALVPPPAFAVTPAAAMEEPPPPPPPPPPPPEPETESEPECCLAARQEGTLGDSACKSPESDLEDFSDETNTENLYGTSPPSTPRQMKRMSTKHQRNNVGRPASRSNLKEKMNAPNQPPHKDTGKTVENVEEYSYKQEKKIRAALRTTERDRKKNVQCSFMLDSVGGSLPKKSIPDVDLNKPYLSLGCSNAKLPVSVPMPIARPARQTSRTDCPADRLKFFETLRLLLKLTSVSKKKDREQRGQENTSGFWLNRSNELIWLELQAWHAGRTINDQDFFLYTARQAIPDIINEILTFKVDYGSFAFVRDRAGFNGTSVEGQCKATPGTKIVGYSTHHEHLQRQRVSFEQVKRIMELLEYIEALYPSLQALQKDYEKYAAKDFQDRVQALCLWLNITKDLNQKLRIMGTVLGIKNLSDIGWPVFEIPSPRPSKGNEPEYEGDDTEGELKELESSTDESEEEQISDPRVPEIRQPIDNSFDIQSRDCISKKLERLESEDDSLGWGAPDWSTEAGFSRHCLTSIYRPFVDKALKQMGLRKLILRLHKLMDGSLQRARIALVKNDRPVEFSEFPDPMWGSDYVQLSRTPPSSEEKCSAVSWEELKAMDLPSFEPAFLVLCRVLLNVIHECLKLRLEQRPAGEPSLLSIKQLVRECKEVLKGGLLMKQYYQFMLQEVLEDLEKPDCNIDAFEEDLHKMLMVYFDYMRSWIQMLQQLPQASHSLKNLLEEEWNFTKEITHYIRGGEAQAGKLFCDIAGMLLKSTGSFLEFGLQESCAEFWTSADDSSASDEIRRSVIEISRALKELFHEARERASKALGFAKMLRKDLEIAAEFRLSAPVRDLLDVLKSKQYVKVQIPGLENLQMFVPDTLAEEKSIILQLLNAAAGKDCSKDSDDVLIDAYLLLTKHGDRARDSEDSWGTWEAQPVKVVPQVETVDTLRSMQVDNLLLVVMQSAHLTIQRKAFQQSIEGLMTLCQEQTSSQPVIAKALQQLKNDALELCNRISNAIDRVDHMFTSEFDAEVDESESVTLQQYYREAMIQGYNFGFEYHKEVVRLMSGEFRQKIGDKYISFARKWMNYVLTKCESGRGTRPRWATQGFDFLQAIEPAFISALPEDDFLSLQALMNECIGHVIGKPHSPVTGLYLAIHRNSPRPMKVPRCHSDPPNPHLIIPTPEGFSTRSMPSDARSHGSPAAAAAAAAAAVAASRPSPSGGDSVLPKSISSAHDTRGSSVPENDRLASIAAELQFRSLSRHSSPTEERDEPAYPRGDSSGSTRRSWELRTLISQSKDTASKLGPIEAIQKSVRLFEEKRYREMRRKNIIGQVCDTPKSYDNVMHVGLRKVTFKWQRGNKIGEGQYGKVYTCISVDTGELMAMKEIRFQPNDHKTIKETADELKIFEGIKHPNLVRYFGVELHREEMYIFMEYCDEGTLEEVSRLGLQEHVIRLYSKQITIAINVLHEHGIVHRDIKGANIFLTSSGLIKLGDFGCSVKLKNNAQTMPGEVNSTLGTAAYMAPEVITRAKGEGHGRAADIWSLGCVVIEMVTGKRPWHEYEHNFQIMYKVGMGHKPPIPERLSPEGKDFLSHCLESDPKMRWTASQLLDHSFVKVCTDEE
Wee1-like protein kinase (Homo sapiens), sequence (P30291 whole entry, looked up): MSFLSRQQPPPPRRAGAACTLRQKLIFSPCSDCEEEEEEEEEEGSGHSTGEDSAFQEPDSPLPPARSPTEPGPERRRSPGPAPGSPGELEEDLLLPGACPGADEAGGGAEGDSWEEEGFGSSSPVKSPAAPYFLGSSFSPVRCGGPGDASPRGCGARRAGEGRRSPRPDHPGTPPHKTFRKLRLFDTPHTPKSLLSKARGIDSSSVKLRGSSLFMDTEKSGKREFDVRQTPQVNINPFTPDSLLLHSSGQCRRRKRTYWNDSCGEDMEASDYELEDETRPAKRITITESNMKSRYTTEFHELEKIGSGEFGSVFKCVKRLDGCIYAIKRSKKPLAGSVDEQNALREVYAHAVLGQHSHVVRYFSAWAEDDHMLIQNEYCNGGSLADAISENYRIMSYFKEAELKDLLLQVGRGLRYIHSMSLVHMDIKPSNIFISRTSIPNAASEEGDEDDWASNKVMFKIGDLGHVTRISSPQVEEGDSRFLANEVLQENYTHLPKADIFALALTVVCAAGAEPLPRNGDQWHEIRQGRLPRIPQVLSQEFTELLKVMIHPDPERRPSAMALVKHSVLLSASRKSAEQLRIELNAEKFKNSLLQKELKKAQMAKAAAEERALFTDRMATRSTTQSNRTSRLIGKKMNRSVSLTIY
Ribosomal protein S6 kinase alpha-1, sequence (Q15418 whole entry): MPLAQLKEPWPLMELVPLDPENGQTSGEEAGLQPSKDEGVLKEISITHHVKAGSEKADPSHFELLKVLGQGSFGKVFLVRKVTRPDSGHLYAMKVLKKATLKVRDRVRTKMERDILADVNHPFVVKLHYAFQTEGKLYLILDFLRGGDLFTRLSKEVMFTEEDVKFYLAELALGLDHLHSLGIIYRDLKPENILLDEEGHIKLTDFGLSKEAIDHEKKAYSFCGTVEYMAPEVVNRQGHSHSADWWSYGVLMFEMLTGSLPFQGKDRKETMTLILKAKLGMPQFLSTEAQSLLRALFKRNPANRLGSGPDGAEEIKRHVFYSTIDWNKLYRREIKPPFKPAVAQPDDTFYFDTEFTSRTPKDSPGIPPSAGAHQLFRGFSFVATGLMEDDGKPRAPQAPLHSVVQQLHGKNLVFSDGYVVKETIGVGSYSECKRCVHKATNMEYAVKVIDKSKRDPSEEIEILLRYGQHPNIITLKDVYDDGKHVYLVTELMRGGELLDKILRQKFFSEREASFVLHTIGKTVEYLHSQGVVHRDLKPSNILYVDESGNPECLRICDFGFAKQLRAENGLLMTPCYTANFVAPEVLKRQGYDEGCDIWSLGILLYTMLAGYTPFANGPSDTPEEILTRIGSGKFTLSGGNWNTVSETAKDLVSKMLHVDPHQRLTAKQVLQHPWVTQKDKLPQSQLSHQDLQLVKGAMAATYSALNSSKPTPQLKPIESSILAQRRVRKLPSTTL
Cell division control protein 42 homolog (Homo sapiens), sequence (P60953 whole entry, looked up): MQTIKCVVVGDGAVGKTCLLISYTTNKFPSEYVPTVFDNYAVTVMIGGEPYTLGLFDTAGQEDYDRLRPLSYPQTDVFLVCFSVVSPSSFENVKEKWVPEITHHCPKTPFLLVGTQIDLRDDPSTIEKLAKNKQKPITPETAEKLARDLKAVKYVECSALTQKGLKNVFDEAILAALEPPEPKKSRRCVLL

In the case of `Cc1ccc(-c2ccc3c(ccc4sc5c(c43)NC[C@@H](C)NC5=O)n2)cn1`, in assay [1], the % of inhibition is -5%. In the case of `C=CC(=O)Nc1cccc(C(=O)Nc2ccc(Nc3cc(-c4[nH]c(SC)nc4C)ccn3)cc2)c1`, the % of control worked out at 95% in [2] (at 1 µM) and 75% in assay [2] (at 5 µM). As to `COc1cc(Nc2nc(C)cc(-c3cnn4nc(OC)ccc34)n2)cc(C(F)(F)F)c1`, in [3], the % of control was found to be 76%.

Turning to `C=CC(=O)Nc1cc(-n2c(=O)ccc3cnc4ccc(-c5ccc(NS(C)(=O)=O)cc5)cc4c32)ccc1C`, the % of control in [4] (at 1 µM) was determined as 89%; in assay [4] (at 10 µM), 100%. As to `CNC(=O)Nc1ccc(-c2nc(N3CC4CCC(C3)O4)c3cnn(C4CCC5(CC4)OCCO5)c3n2)cc1`, the % of control in assay [5] was determined as 88%. Take `CC[C@@H]1[C@H](F)C(=O)N[C@@H]1COc1nccc2cc(C(N)=O)c(OC)cc12` [ZIMLOVISERTIB]: the figures for the % of inhibition in assay [6] and in assay [7] were 10.2% and -1%, respectively.

As for `N#Cc1cccc(-c2c[nH]c3ncnc(N4CCOCC4)c23)c1`, the % of control in assay [8] and in [9] was 100% each time.
